What all share (test): relative viability (nuclei count vs DMSO), 5 days (fraction); higher = more cells survive
Compound in the experiment “PAC-1 + Bortezomib”: C=CCc1cccc(/C=N/NC(=O)CN2CCN(Cc3ccccc3)CC2)c1O [PAC-1] + CC(C)C[C@H](NC(=O)[C@H](Cc1ccccc1)NC(=O)c1cnccn1)B(O)O [Bortezomib] (partner 0.002 µM)
In a few lines: (§1)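 For relative viability, nuclei counts in treated wells were divided by those in vehicle wells. Lung cancer cell lines had been pin-tool dosed in 1536-well plates the day after seeding and cultured for 5 days, then fixed and stained in one step (final 0.05% Triton X-100, 1% formaldehyde, 1 ug/ml Hoechst) and imaged at 4×. Doses were one drug alone or a fixed anchor-drug dose plus five library-drug doses (not always all listed) in √10 steps, and values are duplicate-plate medians.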

Compound in the experiment “PAC-1 + AZD7762”: C=CCc1cccc(/C=N/NC(=O)CN2CCN(Cc3ccccc3)CC2)c1O [PAC-1] + NC(=O)Nc1cc(-c2cccc(F)c2)sc1C(=O)N[C@H]1CCCNC1 [AZD7762] (partner 0.2 µM)
In a few lines: as §1

Compound in the experiment “BMX-IN-1 + Trametinib”: C=CC(=O)Nc1cc(-n2c(=O)ccc3cnc4ccc(-c5ccc(NS(C)(=O)=O)cc5)cc4c32)ccc1C [BMX-IN-1] + CC(=O)Nc1cccc(-n2c(=O)n(C3CC3)c(=O)c3c(Nc4ccc(I)cc4F)n(C)c(=O)c(C)c32)c1 [Trametinib] (partner 0.02 µM)
In a few lines: as §1

Compound in the experiment “Ibrutinib + Trametinib”: C=CC(=O)N1CCC[C@@H](n2nc(-c3ccc(Oc4ccccc4)cc3)c3c(N)ncnc32)C1 [Ibrutinib] + CC(=O)Nc1cccc(-n2c(=O)n(C3CC3)c(=O)c3c(Nc4ccc(I)cc4F)n(C)c(=O)c(C)c32)c1 [Trametinib] (partner 0.02 µM)
In a few lines: as §1

LOU-NH91: the relative viability with PAC-1 + Bortezomib (first compound 0.02 µM) worked out at 0.452; with PAC-1 + Bortezomib (first compound 0.06325 µM), 0.475; with PAC-1 + Bortezomib (first compound 0.2 µM), 0.469; with PAC-1 + Bortezomib (first compound 2 µM) it was 0.526; in the experiment with PAC-1 + AZD7762 (first compound 0.02 µM) it was 0.742; in the experiment with PAC-1 + AZD7762 (first compound 0.06325 µM), 0.761. Also, the relative viability with PAC-1 + AZD7762 (first compound 0.2 µM) came out at 0.768; with PAC-1 + AZD7762 (first compound 2 µM), 0.71; in the experiment with BMX-IN-1 + Trametinib (first compound 0.2 µM) it was 0.814; with BMX-IN-1 + Trametinib (first compound 0.6325 µM), 0.849; with BMX-IN-1 + Trametinib (first compound 2 µM), 0.784; with Ibrutinib + Trametinib (first compound 0.005 µM), 0.744. Also, the relative viability in the experiment with Ibrutinib + Trametinib (first compound 0.01581 µM) was found to be 0.74; with Ibrutinib + Trametinib (first compound 0.05 µM), 0.725; with Ibrutinib + Trametinib (first compound 0.1581 µM) it was 0.783; in the experiment with Ibrutinib + Trametinib (first compound 0.5 µM), 0.655.
Regarding LU99A, the relative viability with PAC-1 + Bortezomib (first compound 0.02 µM) came out at 1.1; in the experiment with PAC-1 + Bortezomib (first compound 0.06325 µM), 1.11; with PAC-1 + Bortezomib (first compound 0.2 µM) it was 1.07; with PAC-1 + Bortezomib (first compound 2 µM) it was 1.05; with PAC-1 + AZD7762 (first compound 0.02 µM) it was 0.465; in the experiment with PAC-1 + AZD7762 (first compound 0.06325 µM) it was 0.392. For the same cell line, the relative viability in the experiment with PAC-1 + AZD7762 (first compound 0.2 µM) was 0.264; in the experiment with PAC-1 + AZD7762 (first compound 2 µM) it was 0.179; in the experiment with BMX-IN-1 + Trametinib (first compound 0.02 µM), 0.515; with BMX-IN-1 + Trametinib (first compound 0.2 µM), 0.548; with BMX-IN-1 + Trametinib (first compound 0.6325 µM), 0.548; with BMX-IN-1 + Trametinib (first compound 2 µM), 0.572. Moreover, the relative viability in the experiment with Ibrutinib + Trametinib (first compound 0.005 µM) stood at 0.532; with Ibrutinib + Trametinib (first compound 0.01581 µM), 0.575; in the experiment with Ibrutinib + Trametinib (first compound 0.05 µM), 0.528; with Ibrutinib + Trametinib (first compound 0.1581 µM), 0.574; with Ibrutinib + Trametinib (first compound 0.5 µM) it was 0.553.
For LXF-289, the relative viability with PAC-1 + Bortezomib (first compound 0.02 µM) came to 0.983; with PAC-1 + Bortezomib (first compound 0.06325 µM) it was 1.01; with PAC-1 + Bortezomib (first compound 0.2 µM), 1.01; in the experiment with PAC-1 + Bortezomib (first compound 2 µM), 0.995; with PAC-1 + AZD7762 (first compound 0.02 µM), 1.09; in the experiment with PAC-1 + AZD7762 (first compound 0.06325 µM), 1.11. Besides, the relative viability turned out to be 0.987 in the experiment with PAC-1 + AZD7762 (first compound 0.2 µM); 1.08 in the experiment with PAC-1 + AZD7762 (first compound 2 µM); 0.722 in the experiment with BMX-IN-1 + Trametinib (first compound 0.02 µM); 0.704 in the experiment with BMX-IN-1 + Trametinib (first compound 0.2 µM); 0.761 with BMX-IN-1 + Trametinib (first compound 0.6325 µM); 0.752 with BMX-IN-1 + Trametinib (first compound 2 µM). The relative viability in the experiment with Ibrutinib + Trametinib (first compound 0.005 µM) worked out at 0.703; with Ibrutinib + Trametinib (first compound 0.01581 µM) it was 0.649; with Ibrutinib + Trametinib (first compound 0.05 µM) it was 0.689; with Ibrutinib + Trametinib (first compound 0.1581 µM), 0.694; with Ibrutinib + Trametinib (first compound 0.5 µM), 0.722.
As to NCI-H23, the relative viability came to 0.956 with PAC-1 + Bortezomib (first compound 0.02 µM); 1.01 in the experiment with PAC-1 + Bortezomib (first compound 0.06325 µM); 0.866 with PAC-1 + Bortezomib (first compound 0.2 µM); 0.995 with PAC-1 + Bortezomib (first compound 2 µM); 0.242 in the experiment with PAC-1 + AZD7762 (first compound 0.02 µM); 0.349 with PAC-1 + AZD7762 (first compound 0.06325 µM). Moreover, the relative viability with PAC-1 + AZD7762 (first compound 0.2 µM) worked out at 0.244; in the experiment with PAC-1 + AZD7762 (first compound 2 µM), 0.314; with BMX-IN-1 + Trametinib (first compound 0.02 µM), 0.38; in the experiment with BMX-IN-1 + Trametinib (first compound 0.2 µM), 0.423; with BMX-IN-1 + Trametinib (first compound 0.6325 µM), 0.318; with BMX-IN-1 + Trametinib (first compound 2 µM), 0.361. In addition, the relative viability with Ibrutinib + Trametinib (first compound 0.005 µM) amounted to 0.313; in the experiment with Ibrutinib + Trametinib (first compound 0.01581 µM), 0.38; in the experiment with Ibrutinib + Trametinib (first compound 0.05 µM) it was 0.362; in the experiment with Ibrutinib + Trametinib (first compound 0.1581 µM), 0.366; with Ibrutinib + Trametinib (first compound 0.5 µM) it was 0.361.
For the cell line NCI-H322M, the relative viability came out at 1.21 in the experiment with PAC-1 + Bortezomib (first compound 0.02 µM); 1.31 in the experiment with PAC-1 + Bortezomib (first compound 0.06325 µM); 1.28 with PAC-1 + Bortezomib (first compound 0.2 µM); 1.07 with PAC-1 + Bortezomib (first compound 2 µM); 0.573 in the experiment with PAC-1 + AZD7762 (first compound 0.02 µM); 0.618 with PAC-1 + AZD7762 (first compound 0.06325 µM). The relative viability came out at 0.706 in the experiment with PAC-1 + AZD7762 (first compound 0.2 µM); 0.584 in the experiment with PAC-1 + AZD7762 (first compound 2 µM); 0.501 with BMX-IN-1 + Trametinib (first compound 0.02 µM); 0.504 with BMX-IN-1 + Trametinib (first compound 0.2 µM); 0.532 with BMX-IN-1 + Trametinib (first compound 0.6325 µM); 0.443 with BMX-IN-1 + Trametinib (first compound 2 µM). Moreover, the relative viability with Ibrutinib + Trametinib (first compound 0.005 µM) was 0.466; with Ibrutinib + Trametinib (first compound 0.01581 µM), 0.457; in the experiment with Ibrutinib + Trametinib (first compound 0.05 µM) it was 0.532; with Ibrutinib + Trametinib (first compound 0.1581 µM), 0.519; with Ibrutinib + Trametinib (first compound 0.5 µM), 0.508.
With NCI-H441, the relative viability with PAC-1 + Bortezomib (first compound 0.02 µM) is 0.57; in the experiment with PAC-1 + Bortezomib (first compound 0.06325 µM) it was 0.358; with PAC-1 + Bortezomib (first compound 0.2 µM), 0.265; with PAC-1 + Bortezomib (first compound 2 µM) it was 0.778; with PAC-1 + AZD7762 (first compound 0.02 µM), 0.994; with PAC-1 + AZD7762 (first compound 0.06325 µM) it was 1.15. Also, the relative viability was found to be 1.19 in the experiment with PAC-1 + AZD7762 (first compound 0.2 µM); 1.1 with PAC-1 + AZD7762 (first compound 2 µM); 0.451 with BMX-IN-1 + Trametinib (first compound 0.02 µM); 0.53 in the experiment with BMX-IN-1 + Trametinib (first compound 0.2 µM); 0.613 in the experiment with BMX-IN-1 + Trametinib (first compound 0.6325 µM); 0.548 with BMX-IN-1 + Trametinib (first compound 2 µM). Further, the relative viability in the experiment with Ibrutinib + Trametinib (first compound 0.005 µM) stood at 0.423; with Ibrutinib + Trametinib (first compound 0.01581 µM), 0.441; with Ibrutinib + Trametinib (first compound 0.05 µM) it was 0.524; in the experiment with Ibrutinib + Trametinib (first compound 0.1581 µM) it was 0.344; in the experiment with Ibrutinib + Trametinib (first compound 0.5 µM) it was 0.342.
Consider NCI-H460, for which the relative viability with PAC-1 + Bortezomib (first compound 0.02 µM) turned out to be 1.3; in the experiment with PAC-1 + Bortezomib (first compound 0.06325 µM) it was 1.02; with PAC-1 + Bortezomib (first compound 0.2 µM), 0.859; with PAC-1 + Bortezomib (first compound 2 µM), 1.14; in the experiment with PAC-1 + AZD7762 (first compound 0.02 µM), 0.548; with PAC-1 + AZD7762 (first compound 0.06325 µM) it was 0.674. The relative viability with PAC-1 + AZD7762 (first compound 0.2 µM) came out at 0.602; with PAC-1 + AZD7762 (first compound 2 µM), 0.656; with BMX-IN-1 + Trametinib (first compound 0.02 µM) it was 0.131; with BMX-IN-1 + Trametinib (first compound 0.2 µM), 0.136; with BMX-IN-1 + Trametinib (first compound 0.6325 µM), 0.236; in the experiment with BMX-IN-1 + Trametinib (first compound 2 µM), 0.181. For the same cell line, the relative viability stood at 0.133 with Ibrutinib + Trametinib (first compound 0.005 µM); 0.0919 with Ibrutinib + Trametinib (first compound 0.01581 µM); 0.195 with Ibrutinib + Trametinib (first compound 0.05 µM); 0.13 in the experiment with Ibrutinib + Trametinib (first compound 0.1581 µM); 0.152 with Ibrutinib + Trametinib (first compound 0.5 µM).
As for NCI-H596, the relative viability was 0.895 with PAC-1 + Bortezomib (first compound 0.02 µM); 1.09 with PAC-1 + Bortezomib (first compound 0.06325 µM); 1.56 with PAC-1 + Bortezomib (first compound 0.2 µM); 1.04 with PAC-1 + Bortezomib (first compound 2 µM); 1.11 in the experiment with PAC-1 + AZD7762 (first compound 0.02 µM); 1.2 with PAC-1 + AZD7762 (first compound 0.06325 µM). Also, the relative viability in the experiment with PAC-1 + AZD7762 (first compound 0.2 µM) was found to be 1.09; in the experiment with PAC-1 + AZD7762 (first compound 2 µM) it was 1.13; with BMX-IN-1 + Trametinib (first compound 0.02 µM) it was 0.718; in the experiment with BMX-IN-1 + Trametinib (first compound 0.2 µM), 0.912; with BMX-IN-1 + Trametinib (first compound 0.6325 µM), 0.652; with BMX-IN-1 + Trametinib (first compound 2 µM) it was 0.825. The relative viability turned out to be 0.821 with Ibrutinib + Trametinib (first compound 0.005 µM); 0.688 in the experiment with Ibrutinib + Trametinib (first compound 0.01581 µM); 0.808 in the experiment with Ibrutinib + Trametinib (first compound 0.05 µM); 0.826 with Ibrutinib + Trametinib (first compound 0.1581 µM); 0.874 in the experiment with Ibrutinib + Trametinib (first compound 0.5 µM).

The values above are taken from the supplement of paper PMC10307832.
